# Measurements as given in patent publication US20130116231A1, “TYROSINE KINASE INHIBITORS” (Merck Sharp & Dohme Corp., priority 2010, published 2013).
# Molecular target: T1, human c-Met (Homo sapiens, UniProt P08581)
# T1 construct: Recombinant GST-tagged cytosolic domains of human c-Met; 6xHis; made in house; host or cells: Sf9 or Sf21 insect cells (baculovirus)
# Test: in vitro kinase assay (homogeneous time-resolved tyrosine kinase assay, METKA)
# Type: biochemical
# Details: recombinant GST-tagged c-Met cytosolic domain, HTRF, 50 μM MgATP; read-out: Biological Activity (METKA IC50) Activity Code
# Text: Recombinant GST-tagged cytosolic domains of human c-Met and other receptor tyrosine kinases including mouse c-Met, human Ron, KDR, IGFR, EGFR, FGFR, Mer, TrkA and Tie2 are used to determine whether the compounds of the instant invention modulate the enzymatic activities of these kinases.
# Soluble recombinant GST-tagged cytosolic domains of c-Met and other receptor tyrosine kinases are expressed in a baculovirus system (Pharmingen) according to a protocol recommended by the manufacturer. The c-DNA encoding each cytosolic domain is subcloned into a baculovirus expression vector (pGcGHLT-A, B or C, Pharmingen) containing an in frame 6× histidine tag and a GST tag. The resulting plasmid construct and BaculoGold baculovirus DNA (Pharmingen) are used to co-transfect Sf9 or Sf21 insect cells. After confirming expression of GST-tagged kinase fusion, a high titer recombinant baculovirus stock is produced, expression conditions are optimized, and a scaled up expression of rat KDR-GST fusion is performed. The fusion kinase is then purified from the insect cell lysate by affinity chromatography using glutathione agarose (Pharmingen). The purified protein is dialyzed against 50% glycerol, 2 mM DTT, 50 mM Tris-HCl (pH 7.4) and stored at −20° C. The protein concentrations of the fusion proteins are determined using Coomassie Plus Protein Assay (Pierce) with BSA as standard.
# The kinase activities of c-Met and other kinases are measured using a modified version of the homogeneous time-resolved tyrosine kinase assay described by Park et al. (1999, Anal. Biochem. 269:94-104).
# The procedure for determining the potency of a compound to inhibit c-Met kinase comprises the following steps: • 1. Prepare 3-fold serial diluted compound solutions in 100% dimethyl sulfoxide (DMSO) at 20× of the desired final concentrations in a 96 well plate. • 2. Prepare a master reaction mix containing 6.67 mM MgCl2, 133.3 mM NaCl, 66.7 mM Tris-HCl (pH 7.4), 0.13 mg/ml BSA, 2.67 mM dithiothreitol, 0.27 nM recombinant c-Met and 666.7 nM biotinylated synthetic peptide substrate (biotin-ahx-EQEDEPEGDYFEWLE-CONH2) (SEQ.ID.NO.:1). • 3. In a black assay plate, add 2.5 μl of compound solution (or DMSO) and 37.5 μl of master reaction mix per well. Initiate the kinase reaction by adding 10 μl of 0.25 mM MgATP per well. Allow the reactions to proceed for 80 min at room temperature. The final conditions for the reaction are 0.2 nM c-Met, 0.5 μM substrate, 50 μM MgATP, […], 100 mM NaCl, 2 mM DTT, 0.1 mg/ml BSA, 50 mM Tris (pH 7.4) and 5% DMSO. • 4. Stop the kinase reaction with 50 μl of Stop/Detection buffer containing 10 mM EDTA, 25 mM HEPES, 0.1% TRITON X-100, 0.126 μg/ml Eu-chelate labeled anti-phosphotyrosine antibody PY20 (cat. #AD0067, PerkinElmer) and 45 μg/ml Streptavidin-allophycocyanin conjugate (cat. #PJ25S, Prozyme). • 5. Read HTRF signals on a Victor reader (PerkinElmer) in HTRF mode after 60 min. • 6. IC50 is determined by fitting the observed relationship between compound concentration and HTRF signal with a 4-parameter logistic equation. Essentially the same procedure was used to determine the potency of compounds to inhibit mouse c-Met, human Ron, KDR, IGFR, EGFR, FGFR, Mer, TrkA and Tie2 except that the concentration of enzyme varied in individual assays (0.2 nM mouse c-Met; 2.5 nM Ron, 8 nM KDR; 0.24 nM IGFR; 0.24 nM EGFR; 0.14 nM FGFR; 16 nM Mer; 8 nM TrkA; 8 nM Tie2).
# T1 sequence (P08581 956-1390 limits assumed): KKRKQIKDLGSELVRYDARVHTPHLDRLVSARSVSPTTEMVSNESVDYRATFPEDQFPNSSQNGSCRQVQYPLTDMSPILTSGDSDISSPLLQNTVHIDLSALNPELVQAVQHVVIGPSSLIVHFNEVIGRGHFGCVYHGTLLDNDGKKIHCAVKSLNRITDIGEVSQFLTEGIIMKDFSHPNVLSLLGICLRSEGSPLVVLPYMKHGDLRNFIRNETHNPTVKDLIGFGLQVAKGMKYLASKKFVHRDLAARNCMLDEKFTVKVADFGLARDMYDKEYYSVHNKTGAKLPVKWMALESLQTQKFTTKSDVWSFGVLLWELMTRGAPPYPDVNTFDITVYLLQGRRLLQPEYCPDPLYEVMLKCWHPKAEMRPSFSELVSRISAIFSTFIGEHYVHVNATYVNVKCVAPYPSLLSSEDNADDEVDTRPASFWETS
row,IC50 [nM],Structure (SMILES)
1,1000 to 3000,"CC(Oc1ccc2ncccc2c1)c1nn(-c2cccc(Br)c2)ccc1=O (single isomer, unassigned) [Example 113, 1-(3-bromophenyl)-3-[1-(quinolin-6-yloxy)ethyl]pyridazin-4(1H)-one]"
2,1000 to 3000,"CC(Oc1ccc2ncccc2c1)c1nn(-c2cccc(Br)c2)ccc1=O (single isomer, unassigned) [Example 114, 1-(3-bromophenyl)-3-[1-(quinolin-6-yloxy)ethyl]pyridazin-4(1H)-one]"
3,< 100,"CC(Cc1nn(-c2cnn(C)c2)ccc1=O)c1ccc2ncccc2c1 (single isomer, unassigned) [Example 125, 1-(1-methyl-1H-pyrazol-4-yl)-3-(2-quinolin-6-ylpropyl)pyridazin-4(1H)-one]"
4,100 to 1000,"CC(Cc1nn(-c2cnn(C)c2)ccc1=O)c1ccc2ncccc2c1 (single isomer, unassigned) [Example 126, 1-(1-methyl-1H-pyrazol-4-yl)-3-(2-quinolin-6-ylpropyl)pyridazin-4(1H)-one]"
5,100 to 1000,"CC(Oc1nn(-c2cnn(C)c2)ccc1=O)c1ccc2ncccc2c1 (single isomer, unassigned) [Example 138, 1-(1-methyl-1H-pyrazol-4-yl)-3-(1-quinolin-6-ylethoxy)pyridazin-4(1H)-one]"
6,100 to 1000,"CC(Oc1nn(-c2cnn(C)c2)ccc1=O)c1ccc2ncccc2c1 (single isomer, unassigned) [Example 139, 1-(1-methyl-1H-pyrazol-4-yl)-3-(1-quinolin-6-ylethoxy)pyridazin-4(1H)-one]"
7,< 100,"COc1cnc2ccc(C(C)Oc3nn(-c4cnn(C)c4)ccc3=O)cc2c1 (single isomer, unassigned) [Example 140, 3-[1-(3-methoxyquinolin-6-yl)ethoxy]-1-(1-methyl-1H-pyrazol-4-yl)pyridazin-4(1H)-one]"
8,< 100,"CCOc1cnc2ccc(C(C)Oc3nn(-c4cnn(C)c4)ccc3=O)cc2c1 (single isomer, unassigned) [Example 141, 3-[1-(3-ethoxyquinolin-6-yl)ethoxy]-1-(1-methyl-1H-pyrazol-4-yl)pyridazin-4(1H)-one]"
9,1000 to 3000,"CCOc1cnc2ccc(C(C)Oc3nn(-c4cnn(C)c4)ccc3=O)cc2c1 (single isomer, unassigned) [Example 142, 3-[1-(3-ethoxyquinolin-6-yl)ethoxy]-1-(1-methyl-1H-pyrazol-4-yl)pyridazin-4(1H)-one]"
10,< 100,"COCCOc1cnc2ccc(C(C)Oc3nn(-c4cnn(C)c4)ccc3=O)cc2c1 (single isomer, unassigned) [Example 143, 3-{1-[3-(2-methoxyethoxy)quinolin-6-yl]ethoxy}-1-(1-methyl-1H-pyrazol-4-yl)pyridazin-4(1H)-one]"
11,100 to 1000,"COCCOc1cnc2ccc(C(C)Oc3nn(-c4cnn(C)c4)ccc3=O)cc2c1 (single isomer, unassigned) [Example 144, 3-{1-[3-(2-methoxyethoxy)quinolin-6-yl]ethoxy}-1-(1-methyl-1H-pyrazol-4-yl)pyridazin-4(1H)-one]"
12,< 100,"COc1ccnc2ccc(C(C)Oc3nn(-c4cnn(C)c4)ccc3=O)cc12 (single isomer, unassigned) [Example 145, 3-[1-(4-methoxyquinolin-6-yl)ethoxy]-1-(1-methyl-1H-pyrazol-4-yl)pyridazin-4(1H)-one]"
13,< 100,"CCn1cc(-n2ccc(=O)c(OC(C)c3ccc4nccc(OC)c4c3)n2)cn1 (single isomer, unassigned) [Example 146, 1-(1-ethyl-1H-pyrazol-4-yl)-3-[1-(4-methoxyquinolin-6-yl)ethoxy]pyridazin-4(1H)-one]"
14,< 100,"Cn1cc(-n2ccc(=O)c(COc3ccc4ncccc4c3)n2)cn1 [Example 1, 1-(1-Methyl-1H-pyrazol-4-yl)-3-[(quinolin-6-yloxy)methyl]pyridazin-4(1H)-one]"
15,1000 to 3000,"Cn1cc(-n2ccc(=O)c(COc3cccc4cnccc34)n2)cn1 [Example 2, 3-[(isoquinolin-5-yloxy)methyl]-1-(1-methyl-1H-pyrazol-4-yl)pyridazin-4(1H)-one]"
16,< 100,"N#Cc1cccc(-n2ccc(=O)c(COc3ccc4ncccc4c3)n2)c1 [Example 3, 3-{4-oxo-3-[(quinolin-6-yloxy)methyl]pyridazin-1(4H)-yl}benzonitrile]"
17,< 100,"N#Cc1cc(F)cc(-n2ccc(=O)c(COc3ccc4ncccc4c3)n2)c1 [Example 4, 3-fluoro-5-{4-oxo-3-[(quinolin-6-yloxy)methyl]pyridazin-1(4H)-yl}benzonitrile]"
18,< 100,"N#Cc1ccc(-n2ccc(=O)c(COc3ccc4ncccc4c3)n2)cc1 [Example 5, 4-{4-oxo-3-[(quinolin-6-yloxy)methyl]pyridazin-1(4H)-yl}benzonitrile]"
19,< 100,"N#Cc1cc(Cl)cc(-n2ccc(=O)c(COc3ccc4ncccc4c3)n2)c1 [Example 6, 3-chloro-5-{4-oxo-3-[(quinolin-6-yloxy)methyl]pyridazin-1(4H)-yl}benzonitrile]"
20,< 100,"O=c1ccn(-c2cc(F)cc(F)c2)nc1COc1ccc2ncccc2c1 [Example 7, 1-(3,5-difluorophenyl)-3-[(quinolin-6-yloxy)methyl] pyridazin-4(1H)-one]"
21,< 100,"O=c1ccn(-c2ccc(F)c(F)c2)nc1COc1ccc2ncccc2c1 [Example 8, 1-(3,4-difluorophenyl)-3-[(quinolin-6-yloxy)methyl] pyridazin-4(1H)-one]"
22,1000 to 3000,"Cn1cc(-n2ccc(=O)c(COc3ccc([N+](=O)[O-])cc3)n2)cn1 [Example 9, 1-(1-methyl-1H-pyrazol-4-yl)-3-[(4-nitrophenoxy)methyl] pyridazin-4(1H)-one]"
23,< 100,"O=c1ccn(-c2cc(F)c(F)c(F)c2)nc1COc1ccc2ncccc2c1 [Example 10, 3-[(quinolin-6-yloxy)methyl]-1-(3,4,5-trifluorophenyl) pyridazin-4(1H)-one]"
24,< 100,"Cn1cc(-n2ccc(=O)c(COc3ccc4nccnc4c3)n2)cn1 [Example 11, 1-(1-methyl-1H-pyrazol-4-yl)-3-[(quinoxalin-6-yloxy)methyl] pyridazin-4(1H)-one]"
25,100 to 1000,"CCOC(=O)c1ccc(OCc2nn(-c3cnn(C)c3)ccc2=O)cc1 [Example 12, ethyl 4-{[1-(1-methyl-1H-pyrazol-4-yl)-4-oxo-1,4-dihydropyridazin-3-yl]methoxy}benzoate]"
26,100 to 1000,Cc1ccc2cc(OCc3nn(-c4cnn(C)c4)ccc3=O)ccc2n1 [Example 13]
27,1000 to 3000,"Cn1cc(-n2ccc(=O)c(COc3ccc4nc(C#N)sc4c3)n2)cn1 [Example 14, 6-{[1-(1-methyl-1H-pyrazol-4-yl)-4-oxo-1,4-dihydropyridazin-3-yl]methoxy}-1,3-benzothiazole-2-carbonitrile]"
28,1000 to 3000,"Cn1cc(C(=O)Nc2cccc(OCc3nn(-c4cnn(C)c4)ccc3=O)c2)cn1 [Example 15, 1-Methyl-N-(3-{[1-(1-methyl-1H-pyrazol-4-yl)-4-oxo-1,4-dihydropyridazin-3-yl]methoxy}phenyl)-1H-pyrazole-4-carboxamide]"
29,100 to 1000,"CNC(=O)c1ccc(OCc2nn(-c3cnn(C)c3)ccc2=O)cc1 [Example 16, N-methyl-4-{[1-(1-methyl-1H-pyrazol-4-yl)-4-oxo-1,4-dihydropyridazin-3-yl]methoxy}benzamide]"
30,1000 to 3000,"Cn1cc(-n2ccc(=O)c(COc3ccc(C(=O)NCC(F)(F)F)cc3)n2)cn1 [Example 18, 4-{[1-(1-methyl-1H-pyrazol-4-yl)-4-oxo-1,4-dihydropyridazin-3-yl]methoxy}-N-(2,2,2-trifluoroethyl) benzamide]"
